Patent publication US6221865A, “Inhibitors of protein isoprenyl transferases” (priority 1998, dated 2001)
Where a name gives a salt, the structure may show the parent alone.

Biological target: T1, protein farnesyltransferase (Rattus norvegicus, UniProt Q02293+Q04631)
T1 construct: The enzyme is purified according to Reiss, Y., et al., Cell, 62: 81-88 (1990), utilizing steps one through three; from tissue; host or cells: rat brain
Experiment: Inhibition of farnesyltransferase (scintillation proximity assay, rat brain enzyme, biotin-K Ras B fragment substrate)
Format: biochemical
Settings: for % inhibition of farnesyltransferase at 1 × 10^-7 M: 1 × 10^-7 M (Table 3); for % inhibition of farnesyltransferase at 1 × 10^-8 M: 1 × 10^-8 M (Table 4)
Summary of the method: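 Enzyme from rat brain, partly purified (steps one to three), assayed by SPA kit using 0.1 mM final biotin-K Ras B peptide as prenyl acceptor rather than biotin-lamin. Activity given as percent inhibition.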

T1 sequence (Q02293 whole entry, one chain of several): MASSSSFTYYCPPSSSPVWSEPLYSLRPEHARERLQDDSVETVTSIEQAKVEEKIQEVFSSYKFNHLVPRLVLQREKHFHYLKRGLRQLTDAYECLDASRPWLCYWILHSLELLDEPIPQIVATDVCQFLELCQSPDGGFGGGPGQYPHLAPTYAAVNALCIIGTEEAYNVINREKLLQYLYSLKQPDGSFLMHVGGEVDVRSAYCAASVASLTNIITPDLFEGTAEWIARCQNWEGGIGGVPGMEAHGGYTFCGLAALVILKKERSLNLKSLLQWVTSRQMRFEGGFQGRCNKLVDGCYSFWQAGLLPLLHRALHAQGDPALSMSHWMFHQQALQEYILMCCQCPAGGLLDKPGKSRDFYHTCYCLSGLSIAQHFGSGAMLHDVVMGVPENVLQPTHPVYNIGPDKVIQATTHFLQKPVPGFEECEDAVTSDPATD

Compound | % inhibition of farnesyltransferase at 1 × 10^-6 M (1 × 10^-6 M (Table 2)) [%] | % inhibition of farnesyltransferase at 1 × 10^-7 M [%] | further results
CSCC[C@H](NC(=O)c1ccc(CNC(CC2CCCCC2)C(O)C(O)CC(C)C)cc1-c1ccccc1C)C(=O)O (stereo partly shown) [Example 528] | 99 | – | –
CSCC[C@H](NC(=O)c1ccc(COCc2ccoc2)cc1-c1ccccc1C)C(=O)O [Example 530] | 94 | – | –
CSCC[C@H](NC(=O)c1ccc(COCCc2ccco2)cc1-c1ccccc1C)C(=O)[O-].[Li+] [Example 531] | – | 74 | –
CSCC[C@H](NC(=O)c1ccc(COCc2ccc(C)o2)cc1-c1ccccc1C)C(=O)O [Example 532] | – | 88 | –
CSCC[C@H](NC(=O)c1ccc(COCc2cc3ccccc3o2)cc1-c1ccccc1C)C(=O)[O-].[Li+] [Example 533] | – | 91 | –
CSCC[C@H](NC(=O)c1ccc(COC(Cc2ccccc2)c2ccco2)cc1-c1ccccc1C)C(=O)[O-].[Li+] (stereo partly shown) [Example 534] | – | 84 | –
CSCC[C@H](NC(=O)c1ccc(COCCc2ccc(-c3ccc(F)cc3)o2)cc1-c1ccccc1C)C(=O)[O-].[Li+] [Example 535] | – | 89 | –
CSCC[C@H](NC(=O)c1ccc(COCCc2ccc(-c3ccc(Cl)cc3)o2)cc1-c1ccccc1C)C(=O)[O-].[Li+] [Example 536] | – | 79 | –
CSCC[C@H](NC(=O)c1ccc(COCc2cncs2)cc1-c1ccccc1C)C(=O)[O-].[Li+] [Example 539] | – | 89 | –
CSCC[C@H](NC(=O)c1ccc(NC(=O)Cc2ccccc2)cc1-c1ccccc1C)C(=O)O [Example 540] | 40 | – | –
CSCC[C@H](NC(=O)c1ccc(NC(=O)Cc2ccc(C)cc2)cc1-c1ccccc1C)C(=O)O [Example 541] | 37 | – | –
COc1ccc(CC(=O)Nc2ccc(C(=O)N[C@@H](CCSC)C(=O)O)c(-c3ccccc3C)c2)cc1 [Example 542] | 67 | – | –
COc1ccccc1CCC(=O)Nc1ccc(C(=O)N[C@@H](CCSC)C(=O)O)c(-c2ccccc2C)c1 [Example 544] | 35 | – | –
CSCC[C@H](NC(=O)c1ccc(CS[C@H](CO)Cc2ccccc2)cc1-c1ccccc1)C(=O)O [Example 545] | 88 | – | –
CSCC[C@H](NC(=O)c1ccc(OC/C=C(\C)CCC=C(C)C)cc1-c1ccccc1C)C(=O)O [Example 546] | 97 | – | –
CSCC[C@H](NC(=O)c1ccc(OC/C=C(\C)CC/C=C(\C)CCC=C(C)C)cc1-c1ccccc1C)C(=O)O [Example 547] | 91 | – | –
CSCC[C@H](NC(=O)c1ccc(CSC2CCCCC2)cc1-c1ccccc1C)C(=O)[O-].[Li+] [Example 550] | 96 | – | –
CSCC[C@H](NC(=O)c1ccc(CSc2ccc3ccccc3c2)cc1-c1ccccc1C)C(=O)O [Example 551] | – | 93 | –
CSCC[C@H](NC(=O)c1ccc(OCCC2CCCCC2)cc1-c1ccccc1C)C(=O)[O-].[Li+] [Example 552] | 88 | – | –
CSCC[C@H](NC(=O)c1ccc(OCCC23CC4CC(CC(C4)C2)C3)cc1-c1ccccc1C)C(=O)O [Example 553] | 92 | – | –
CSCC[C@H](NC(=O)c1ccc(CSCc2ccccc2)cc1-c1ccccc1C)C(=O)[O-].[Li+] [Example 554] | 96 | – | –
CSCC[C@H](NC(=O)c1ccc(CS(=O)(=O)Cc2ccccc2)cc1-c1ccccc1C)C(=O)O [Example 555] | 85 | – | –
CSCC[C@H](NC(=O)c1ccc(CSCc2ccc(C)cc2)cc1-c1ccccc1C)C(=O)[O-].[Li+] [Example 556] | 99 | – | –
CSCC[C@H](NC(=O)c1ccc(CSCc2ccccc2C)cc1-c1ccccc1C)C(=O)[O-].[Li+] [Example 557] | 93 | – | –
CSCC[C@H](NC(=O)c1ccc(CSCC2CCCCC2)cc1-c1ccccc1C)C(=O)[O-].[Li+] [Example 559] | – | 96 | –
CSCC[C@H](NC(=O)c1ccc(OC/C=C/c2ccccc2)cc1-c1ccccc1C)C(=O)O [Example 560] | 91 | – | –
CSCC[C@H](NC(=O)c1ccc(OCCOc2ccccc2)cc1-c1ccccc1C)C(=O)O [Example 561] | 91 | – | –
CSCC[C@H](NC(=O)c1ccc(CSCCc2ccccc2)cc1-c1ccccc1C)C(=O)[O-].[Li+] [Example 562] | – | 95 | –

Compound | % inhibition of farnesyltransferase at 1 × 10^-6 M (1 × 10^-6 M (Table 2)) [%] | % inhibition of farnesyltransferase at 1 × 10^-7 M [%] | further results
CSCC[C@H](NC(=O)c1ccc(OCCCC2CCCCC2)cc1-c1ccccc1C)C(=O)O [Example 564] | 98 | – | –
CSCC[C@H](NC(=O)c1ccc(OCCOC2CCCCC2)cc1-c1ccccc1C)C(=O)[O-].[Li+] [Example 565] | 94 | – | –
CSCC[C@H](NC(=O)c1ccc(OCCCOc2ccccc2)cc1-c1ccccc1C)C(=O)O [Example 566] | 98 | – | –
CSCC[C@H](NC(=O)c1ccc(OCCCCOc2ccccc2)cc1-c1ccccc1C)C(=O)O [Example 568] | 93 | – | –
CSCC[C@H](NC(=O)c1ccc(COCc2ccccc2)cc1-c1ccccc1C)C(=O)[O-].[Li+] [Example 571] | – | 88 | –
CSCC[C@H](NC(=O)c1ccc(CC(Cc2ccccc2)c2ccccc2)cc1-c1ccccc1C)C(=O)O (stereo partly shown) [Example 572, N-[4-(2,3-diphenylpropan-1-yl)-2-(2-methylphenyl)benzoyl]methionine lithium salt] | – | – | inhibition at 1 µM (read-out: % inhibition of farnesyltransferase at 1 × 10^-6 M, 1 × 10^-6 M (Table 2)): 91%
CSCC[C@H](NC(=O)c1ccc(COc2ccc3ccccc3c2)cc1-c1ccccc1C)C(=O)O [Example 573] | – | 72 | –
CSCC[C@H](NC(=O)c1ccc(COc2cccc3ccccc23)cc1-c1ccccc1C)C(=O)O [Example 574] | – | 81 | –
CSCC[C@H](NC(=O)c1ccc(COCc2ccccc2)cc1-c1ccccc1)C(=O)O [Example 575] | 70 | – | –
Cc1ccccc1-c1cc(COCc2ccccc2)ccc1C(=O)N[C@@H](CCS(C)(=O)=O)C(=O)O [Example 576] | 88 | – | –
CSCC[C@H](NC(=O)c1ccc(COCc2ccccc2C)cc1-c1ccccc1C)C(=O)[O-].[Li+] [Example 577] | 94 | – | –
CSCC[C@H](NC(=O)c1ccc(COCc2cccc(C)c2)cc1-c1ccccc1C)C(=O)[O-].[Li+] [Example 578] | – | 90 | –
CSCC[C@H](NC(=O)c1ccc(COCc2ccc(C)cc2)cc1-c1ccccc1C)C(=O)[O-].[Li+] [Example 579] | – | 92 | –
CSCC[C@H](NC(=O)c1ccc(COCc2ccccc2)cc1-c1ccccc1C)C(=O)NS(=O)(=O)c1ccccc1 [Example 580] | – | 90 | –
CSCC[C@H](NC(=O)c1ccc(COCc2ccccc2)cc1-c1ccccc1C)C(=O)NS(=O)(=O)c1ccc(C)cc1 [Example 582] | 99 | – | –
CSCC[C@H](NC(=O)c1ccc(COCc2ccc3ccccc3c2)cc1-c1ccccc1C)C(=O)[O-].[Li+] [Example 583] | 98 | – | –
CSCC[C@H](NC(=O)c1ccc(COCc2cccc3ccccc23)cc1-c1ccccc1C)C(=O)[O-].[Li+] [Example 584] | – | 96 | –
CSCC[C@H](NC(=O)c1ccc(COCC2CCCCC2)cc1-c1ccccc1C)C(=O)[O-].[Li+] [Example 585] | – | 96 | –
CSCC[C@H](NC(=O)c1ccc(CSCc2ccccc2)cc1-c1ccccc1C)C(=O)NS(=O)(=O)c1ccc(C)cc1 [Example 586] | – | – | % inhibition of farnesyltransferase at 1 × 10^-8 M: 90%
CSCC[C@H](NC(=O)c1ccc(COCCc2ccccc2)cc1-c1ccccc1C)C(=O)[O-].[Li+] [Example 587] | 97 | – | –
CSCC[C@H](NC(=O)c1ccc(COCCc2ccccc2Cl)cc1-c1ccccc1C)C(=O)[O-].[Li+] [Example 588] | – | – | % inhibition of farnesyltransferase at 1 × 10^-8 M: 68%
COc1ccccc1CCOCc1ccc(C(=O)N[C@@H](CCSC)C(=O)O)c(-c2ccccc2C)c1 [Example 589] | – | 91 | –
CSCC[C@H](NC(=O)c1ccc(COCCc2ccc(Cl)cc2)cc1-c1ccccc1C)C(=O)[O-].[Li+] [Example 590] | – | 95 | –
CSCC[C@H](NC(=O)c1ccc(COCCc2ccc(Cl)cc2Cl)cc1-c1ccccc1C)C(=O)[O-].[Li+] [Example 591] | – | – | % inhibition of farnesyltransferase at 1 × 10^-8 M: 82%
CSCC[C@H](NC(=O)c1ccc(COCCc2cccc3ccccc23)cc1-c1ccccc1C)C(=O)[O-].[Li+] [Example 592] | – | 93 | –
CSCC[C@H](NC(=O)c1ccc(COCCc2ccc3ccccc3c2)cc1-c1ccccc1C)C(=O)[O-].[Li+] [Example 593] | – | 86 | –
CSCC[C@H](NC(=O)c1ccc(COCCC2CCCCC2)cc1-c1ccccc1C)C(=O)[O-].[Li+] [Example 594] | – | 95 | –
